{"source": "patent US10500198B2", "about": "“Bis-benzylidine piperidone proteasome inhibitor with anticancer activity” (The Johns Hopkins University, priority 2013, dated 2019)", "key": {"4UbFL reporter": {"test_system": "4UbFL reporter", "test": "Proteasome inhibition in vivo (4UbFL reporter bioluminescence)"}, "MM and HeLa cells": {"test_system": "MM and HeLa cells", "test": "Annexin-V flow cytometry", "type": "cell-based", "details": "12 hr after treating", "procedure": "Activation of ICE family members such as caspase-3 and -7 results in cleavage of poly ADP ribose polymerase (PARP) to 85 kDa and 25 kDa fragments and drives apoptosis.\nInduction of apoptosis was determined using Annexin V-PE Apoptosis Detection Kit I (BD Pharmingen, San Diego, Calif.) according to the manufacturer's protocol."}, "ES2-luciferase tumor": {"test_system": "ES2-luciferase tumor", "test": "ES2-luciferase tumor in nude mice", "type": "in vivo, mouse", "details": "10 mg/kg i.p. every day, 14 days", "text": "Prior to and at the end of the treatment, mice were imaged for bioluminescence. […] The mice were imaged before and at the end of the treatment for bioluminescence levels. We have previously described the susceptibility of human ovarian cancer lines to proteasome inhibition. […] Prior to and 7 and 14 days after initiation of treatment, the mice were imaged for luciferase activity.\nFor TC-1 tumors, C57BL/6 mice (8/group) were challenged subcutaneously with 5×10^4 TC-1 cells/mice. Tumors grew for approximately 7 days until they were palpable, whereupon the mice were weighed and treatment was initiated. Tumor size was measured with a digital caliper and calculated based on the formula: [largest diameter×(perpendicular diameter)2]π/6. Nude mice (8 per group) were inoculated with 1×10^6 EΩ-Luciferase cells i.p. in 100 μL PBS. At day 3 mice were imaged for basal level luminescence expression. […] NOG mice (5 per group) were inoculated with 1×10^6 NCI-H929-GFP-Luc cells i.v., and after 4 weeks, mice were imaged for their luciferase activity and divided into two groups."}, "[1]": {"test": "Complete blood counts and blood chemistry of C57BL/6 mice carrying TC-1 tumor;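 also: blood drawn from the heart after euthanasia, cell counts read on an automated hemocytometer, heparinized plasma analyzed on an automated clinical chemistry analyzer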", "details": "C57BL/6 mice with TC-1 tumor; nine doses every third day: RA190 40 mg/kg p.o., Bortezomib 1.5 mg/kg i.p.; mean ± SD, n = 3"}, "C33A": {"test_system": "C33A", "test": "Cell viability after 48-hr treatment (Table 1)", "type": "cell-based", "details": "48-hr treatment; XTT assay; read-out: IC50, C33A", "procedure": "(§1) Cell viability was assayed using CellTiter 960 AQueous One Solution Reagent (Promega, Madison, Wis.). Cells seeded at the concentration of 1,000 cells/well for HeLa, 5,000 cells/well for ES2 and HCT116 and 10,000-20,000 cells/well for other cell lines in 100 μL medium in 96-well plate were treated with RA series compounds at specified concentrations. […]"}, "SKOV3": {"test_system": "SKOV3", "test": "Cell viability after 48-hr treatment (Table 1)", "type": "cell-based", "details": "48-hr treatment; XTT assay; read-out: IC50, SKOV3", "procedure": "as §1"}, "FaDu": {"test_system": "FaDu", "test": "Cell viability after 48-hr treatment (Table 1)", "type": "cell-based", "details": "48-hr treatment; XTT assay; read-out: IC50, FaDu", "procedure": "as §1"}, "MM.1S": {"test_system": "MM.1S", "test": "Cell viability after 48-hr treatment (Table 1)", "type": "cell-based", "details": "XTT assay", "procedure": "as §1"}, "[2]": {"test": "Complete blood counts, blood chemistry and histopathology of healthy Balb/C mice"}, "[3]": {"details": "i.m. electroporated 4UbFL, RA190 40 mg/kg i.p., bortezomib 1.5 mg/kg i.p."}, "[4]": {"details": "healthy Balb/C mice, 3 doses 40 mg/kg p.o. every third day, mean ± SD, n = 3"}}, "note": "pIC50: −log10 of the molar value."}
{"smiles": "Cl.N[C@@H](Cc1ccccc1)C(=O)N1CC(=Cc2ccc(Cl)c(Cl)c2)C(=O)C(=Cc2ccc(Cl)c(Cl)c2)C1", "note": "[RA190, 3,5-bis(3,4-dichlorobenzylidene)-1-(S-2-amino-3-phenyl)-piperidin-4-one-HCl salt]", "values": [{"measurement": "bioluminescence after oral administration", "setting": "4UbFL reporter; 40 mg/kg orally, 4UbFL i.m. by electroporation or in skin via gene gun", "value": "increased the bioluminescence"}, {"measurement": "4UbFL reporter in skin after topical administration", "setting": "4UbFL reporter; 4% in Cremophor-EL topically", "value": "stabilized the 4UbFL reporter in skin"}, {"measurement": "bioluminescence at 48 hr after treatment", "setting": "4UbFL reporter; i.m. electroporated 4UbFL, RA190 40 mg/kg i.p.", "value": "significant increase in bioluminescence"}, {"measurement": "bioluminescence compared to vehicle alone, 4 hr after treatment", "setting": "4UbFL reporter; [3]", "value": 4, "unit": "fold"}, {"measurement": "increase in bioluminescence, one day post-treatment", "setting": "4UbFL reporter; [3]", "value": 4, "unit": "fold"}, {"measurement": "apoptosis (Annexin-V)", "setting": "MM and HeLa cells", "value": "trigger extensive apoptosis"}, {"measurement": "ES2 tumor growth (bioluminescence)", "setting": "ES2-luciferase tumor", "value": "significantly inhibited"}, {"measurement": "ALBNEW (Albumin)", "setting": "[1]", "value": "2.76 ± 0.23"}, {"measurement": "ALPNEW (Alkaline Phosphatase)", "setting": "[1]", "value": "55.33 ± 6.50"}, {"measurement": "ALTNEW (Alanine Aminotransferase)", "setting": "[1]", "value": "31.33 ± 2.30"}, {"measurement": "AMYL (Amylase)", "setting": "[1]", "value": "621.33 ± 127"}, {"measurement": "ASTNEW (Aspartate aminotransferase)", "setting": "[1]", "value": "50.33 ± 4.93"}, {"measurement": "BA(Basophils)", "setting": "[1]", "value": "0.023 ± 0.011"}, {"measurement": "BUNNEW (Blood Urea Nitrogen)", "setting": "[1]", "value": "26 ± 5.29"}, {"measurement": "CA (Calcium)", "setting": "[1]", "value": "8.56 ± 0.23"}, {"measurement": "CHOL (Cholesterol)", "setting": "[1]", "value": "67 ± 4.58"}, {"measurement": "CK_NEW (Creatinine Kinase)", "setting": "[1]", "value": "131 ± 65.50"}, {"measurement": "CREAT (Creatinine)", "setting": "[1]", "value": "0.46 ± 0.057"}, {"measurement": "EO (Eosinophils)", "setting": "[1]", "value": "0.10 ± 0.01"}, {"measurement": "GGTNEW (Gamma-Glutamyl Transferase)", "setting": "[1]", "value": "5.33 ± 0.57"}, {"measurement": "GLU (Glucose)", "setting": "[1]", "value": "170.66 ± 6.11"}, {"measurement": "HCT(Hematocrit)", "setting": "[1]", "value": "50.36 ± 2.45"}, {"measurement": "HDLNEW (High Density Lipoprotein)", "setting": "[1]", "value": "40.33 ± 4.72"}, {"measurement": "Hb (Hemoglobin)", "setting": "[1]", "value": "13.26 ± 1.00"}, {"measurement": "LDH (lactate Dehydrogenase)", "setting": "[1]", "value": "172.06 ± 14.29"}, {"measurement": "LY(Lymphocytes)", "setting": "[1]", "value": "1.87 ± 0.69"}, {"measurement": "MCH (Mean corpuscular hemoglobin)", "setting": "[1]", "value": "13.60 ± 0.53"}, {"measurement": "MCHC (mean corpuscular hemoglobin concentration)", "setting": "[1]", "value": "26.33 ± 0.75"}, {"measurement": "MCV (Mean corpuscular Volume)", "setting": "[1]", "value": "51.66 ± 2.63"}, {"measurement": "MO(Monocytes)", "setting": "[1]", "value": "0.25 ± 0.07"}, {"measurement": "MPV (Mean Platelet Volume)", "setting": "[1]", "value": "5.36 ± 0.06"}, {"measurement": "NE(Neutrophils)", "setting": "[1]", "value": "2.69 ± 0.45"}, {"measurement": "PLT (Platelet)", "setting": "[1]", "value": "907 ± 45.92"}, {"measurement": "RBC (red Blood Cells)", "setting": "[1]", "value": "9.77 ± 0.76"}, {"measurement": "RDW (Red Blood Cell Distribution Width)", "setting": "[1]", "value": "18.00 ± 0.52"}, {"measurement": "TBIL1 (Total bilirubin)", "setting": "[1]", "value": "0.233 ± 0.057"}, {"measurement": "TPROT (Total protein)", "setting": "[1]", "value": "4.46 ± 0.11"}, {"measurement": "UA (Uric Acid)", "setting": "[1]", "value": "2.86 ± 0.41"}, {"measurement": "WBC(White Blood Cells)", "setting": "[1]", "value": "7.62 ± 4.17"}, {"measurement": "pIC50", "setting": "C33A", "value": "< 5.30"}, {"measurement": "pIC50", "setting": "SKOV3", "value": "< 5.60"}, {"measurement": "pIC50", "setting": "FaDu", "value": "< 5.60"}, {"measurement": "pIC50", "setting": "MM.1S", "value": 7.46}, {"measurement": "ALBNEW (Albumin)", "setting": "[2]; [4]", "value": "3.03 ± 0.05"}, {"measurement": "ALPNEW (Alkaline Phosphatase)", "setting": "[2]; [4]", "value": "84.33 ± 7.57"}, {"measurement": "ALTNEW (Alanine Aminotransferase)", "setting": "[2]; [4]", "value": "39.66 ± 4.04"}, {"measurement": "AMYL (Amylase)", "setting": "[2]; [4]", "value": "743 ± 29.4"}, {"measurement": "ASTNEW (Aspartate aminotransferase)", "setting": "[2]; [4]", "value": "62.66 ± 11.01"}, {"measurement": "BA(Basophils)", "setting": "[2]; [4]", "value": "0.06 ± 0.07"}, {"measurement": "BUNNEW (Blood Urea Nitrogen)", "setting": "[2]; [4]", "value": "20 ± 2.64"}, {"measurement": "CA (Calcium)", "setting": "[2]; [4]", "value": "9 ± 0.2"}, {"measurement": "CHOL (Cholesterol)", "setting": "[2]; [4]", "value": "114 ± 12.12"}, {"measurement": "CK_NEW (Creatinine Kinase)", "setting": "[2]; [4]", "value": "55.66 ± 25.48"}, {"measurement": "CREAT (Creatinine)", "setting": "[2]; [4]", "value": "0.36 ± 0.05"}, {"measurement": "EO (Eosinophils)", "setting": "[2]; [4]", "value": "0.24 ± 0.23"}, {"measurement": "GGTNEW (Gamma-Glutamyl Transferase)", "setting": "[2]; [4]", "value": "4.33 ± 0.57"}, {"measurement": "GLU (Glucose)", "setting": "[2]; [4]", "value": "175.33 ± 20.5"}, {"measurement": "HCT(Hematocrit)", "setting": "[2]; [4]", "value": "55.66 ± 1.70"}, {"measurement": "HDLNEW (High Density Lipoprotein)", "setting": "[2]; [4]", "value": "49 ± 5.29"}, {"measurement": "Hb (Hemoglobin)", "setting": "[2]; [4]", "value": "14.63 ± 0.15"}, {"measurement": "K (Potassium)", "setting": "[2]; [4]", "value": "6.05 ± 0.21"}, {"measurement": "LDH (lactate Dehydrogenase)", "setting": "[2]; [4]", "value": "160 ± 37.51"}, {"measurement": "LY(Lymphocytes)", "setting": "[2]; [4]", "value": "4.78 ± 1.89"}, {"measurement": "MCH (Mean corpuscular hemoglobin)", "setting": "[2]; [4]", "value": "14.10 ± 0.2"}, {"measurement": "MCHC (mean corpuscular hemoglobin concentration)", "setting": "[2]; [4]", "value": "26.33 ± 0.55"}, {"measurement": "MCV (Mean corpuscular Volume)", "setting": "[2]; [4]", "value": "53.60 ± 0.26"}, {"measurement": "MO(Monocytes)", "setting": "[2]; [4]", "value": "0.34 ± 0.28"}, {"measurement": "MPV (Mean Platelet Volume)", "setting": "[2]; [4]", "value": "5.06 ± 0.37"}, {"measurement": "NE(Neutrophils)", "setting": "[2]; [4]", "value": "2.43 ± 0.94"}, {"measurement": "Na (Sodium)", "setting": "[2]; [4]", "value": "147.5 ± 0.70"}, {"measurement": "PLT (Platelet)", "setting": "[2]; [4]", "value": "533 ± 61.65"}, {"measurement": "RBC (red Blood Cells)", "setting": "[2]; [4]", "value": "10.38 ± 0.26"}, {"measurement": "RDW (Red Blood Cell Distribution Width)", "setting": "[2]; [4]", "value": "17.23 ± 0.30"}, {"measurement": "TBIL1 (Total bilirubin)", "setting": "[2]; [4]", "value": "0.26 ± 0.05"}, {"measurement": "TPROT (Total protein)", "setting": "[2]; [4]", "value": "5.16 ± 0.05"}, {"measurement": "TRIG (Triglycerides)", "setting": "[2]; [4]", "value": "107.33 ± 22.40"}, {"measurement": "UA (Uric Acid)", "setting": "[2]; [4]", "value": "1.5 ± 0.26"}, {"measurement": "WBC(White Blood Cells)", "setting": "[2]; [4]", "value": "7.88 ± 3.42"}, {"measurement": "blood chemistry and hematologic panels versus vehicle", "setting": "[2]; three doses of 40 mg/kg p.o. every third day, euthanized on day 12", "value": "No significant difference"}]}
